In brackets after ≈: the same amount, converted by molar mass.
Assay: Cytotoxicity against human KBVIN cells
Format: functional, cell-based

COc1cc([C@@H]2c3cc4c(cc3[C@@H](O[C@@H]3O[C@@H]5CO[C@@H](C)O[C@H]5[C@H](O)[C@H]3O)[C@H]3COC(=O)[C@H]23)OCO4)cc(OC)c1O [ETOPOSIDE]
EC50: 8.8 µg/mL (≈ 15 µM)
